Reference: patent US3965103A, “4-Nitroperhydropyrido[1,2-a][1,4]diazepines” (Schering Aktiengesellschaft, priority 1973, dated 1976)
In brackets after ≈: the same amount, converted by molar mass. Read-outs that look alike come from different tables or passages of the source.

Tests used:
Asp. flav. = assay: Tube Dilution Test in liquid media; type: cell-based
Excerpt: (§1) The above mentioned greater activity against dermatophytes, yeasts and other fungi compared to "Bronopol" is illustrated in Table 1:
(§2) MIC (μg./ml.) in the Tube Dilution Test in liquid media

Asp. fum. = assay: Tube Dilution Test in liquid media; type: cell-based
Excerpt: as §1, §2

Asp. nig. = assay: Tube Dilution Test in liquid media; type: cell-based
Excerpt: as §1, §2

Candid. alb. = assay: Tube Dilution Test in liquid media; type: cell-based
Excerpt: as §1, §2

Chaet. glob. = assay: Tube Dilution Test in liquid media; type: cell-based
Excerpt: as §1, §2

Microsp. gypseum = assay: Tube Dilution Test in liquid media; type: cell-based
Excerpt: as §1, §2

Mucor. pus. = assay: Tube Dilution Test in liquid media; type: cell-based
Excerpt: as §1, §2

Paecilomyc. = assay: Tube Dilution Test in liquid media; type: cell-based
Excerpt: as §1, §2

Pen. notat. = assay: Tube Dilution Test in liquid media; type: cell-based
Excerpt: as §1, §2

Sacch. cer. = assay: Tube Dilution Test in liquid media; type: cell-based
Excerpt: as §1, §2

Trichoph. ment. = assay: Tube Dilution Test in liquid media; type: cell-based
Excerpt: as §1, §2

Trichoph. rubr. = assay: Tube Dilution Test in liquid media; type: cell-based
Excerpt: as §1, §2

bacteria = conditions: known from U.S. Pat. No. 3,558,788; cited from earlier work
Fusar. = assay: Tube Dilution Test in liquid media; type: cell-based
Excerpt: as §1, §2

[1] = Sacch. cer., tube dilution test, liquid media, read-out: MIC

SMILES	MIC (Asp. flav.) [µg/mL]	MIC (Asp. fum.) [µg/mL]	MIC (Asp. nig.) [µg/mL]	MIC (Candid. alb.) [µg/mL]	MIC (Chaet. glob.) [µg/mL]	MIC (Microsp. gypseum) [µg/mL]	MIC (Mucor. pus.) [µg/mL]	MIC (Paecilomyc.) [µg/mL]	MIC (Pen. notat.) [µg/mL]	MIC (Sacch. cer.) [µg/mL]	MIC (Trichoph. ment.) [µg/mL]	MIC (Trichoph. rubr.) [µg/mL]	antibacterial activity (bacteria)	MIC (Sacch. cer.; [1]) [µg/mL]	MIC (Fusar.) [µg/mL]
O=[N+]([O-])C(Br)(CO)CO [Bronopol, 2-bromo-2-nitropropane-1,3-diol, reference compound]	> 1000	63 (≈ 315 µM)	> 1000	63 (≈ 315 µM)	> 1000	16 (≈ 80 µM)	63 (≈ 315 µM)	250 (≈ 1250 µM)	> 1000	125 (≈ 625 µM)	8 (≈ 40 µM)	4 (≈ 20 µM)	has antibacterial activity	–	–
CN1CC2CCCCN2CC(Cc2ccccc2)([N+](=O)[O-])C1.Cl.Cl (centres unmarked) [4-Benzyl-2-methyl-4-nitroperhydropyrido[1,2-a] [1,4]-diazepine dihydrochloride]	63	31	125	4	63	8	8	16	125	–	4	2	–	4	–
CCCCC1([N+](=O)[O-])CN(C)CC2CCCCN2C1.Cl.Cl (centres unmarked) [4-n-Butyl-2-methyl-4-nitroperhydropyrido[1,2-a] [1,4] diazepine dihydrochloride]	4	8	31	8	8	8	2	63	8	–	2	2	–	4	16
